The structures appear in SMILES notation. Counter-ions that a name gives are not always drawn.

The source of these data is patent publication US6875761B2 (Eisai Co., Ltd., priority 1997, dated 2005).

For `CCCNS(=O)(=O)c1ccc(-c2cc3ccccc3c(N3CCN(CC)CC3)n2)cc1` (as salt: hydrochloride) [Example 353, 1-(4-ethylpiperazin-1-yl)-3-[4-(N-propylsulfamoyl)phenyl]isoquinoline dihydrochloride], the melting point was 226.5 to 227.5 °C (dec.). For the compound `CCC(=O)Nc1ccc(-c2cc3ccccc3c(N3CCN(CC)CC3)n2)cc1` (as salt: hydrochloride) [Example 69, 3-(4-Ethylcarbonylaminophenyl)-1-(4-Ethylpiperazin-1-Yl)Isoquinoline Hydrochloride], the melting point was 176 to 178 °C. For the compound `CCN1CCN(c2nc(-c3ccccc3)cc3ccc(OC)cc23)CC1` (as salt: hydrochloride), the melting point is 130 to 132 °C. Turning to `CCN1CCN(c2nc(-c3ccc(C4=CCOCC4)cc3)cc3ccsc23)CC1` (as salt: hydrochloride) [Example 266, 5-[4-(5,6-dihydro-2H-pyran-4-yl)phenyl]-7-(4-ethylpiperazin-1-yl)thieno[2,3-c]pyridine Hydrochloride], the melting point was in the range of 176 to 179 °C.

`CCCC(O)c1ccc(-c2cc3ccccc3c(N3CCN(CC)CC3)n2)cc1` (stereo not drawn) (as salt: oxalate) [Example 21, 1-(4-ethylpiperazin-1-yl)-3-[4-(1-hydroxybutyl)phenyl]isoquinoline oxalate]: the melting point lay in the range of 198.5 to 199.5 °C.

As to `CCN1CCN(c2nc(-c3ccc(OC)cc3)cc3cc(F)ccc23)CC1` (as salt: hydrochloride), the melting point fell in the range of 131 to 135 °C. For the compound `CCN1CCN(c2nc(-c3cccc(OC)c3OC)cc3ccccc23)CC1` (as salt: hydrochloride), the melting point was in the range of 122 to 123 °C. For `CCN1CCN(c2nc(-c3ccc(S(=O)(=O)NC4CC4)cc3)cc3ccccc23)CC1` (as salt: hydrochloride) [Example 363, 1-(4-ethylpiperazin-1-yl)-3-[4-(N-cyclopropylsulfamoyl)phenyl]isoquinoline dihydrochloride] the value was 158 to 159.5 °C; for `CCN1CCN(c2nc(-c3ccc(O[C@@H](C)CO)cc3)cc3ccccc23)CC1` (as salt: hydrochloride) [Example 404, 1-(4-ethylpiperazin-1-yl)-3-[4-(2-hydroxy-1-methylethoxy)phenyl]isoquinoline Dihydrochloride], 128 to 129 °C; for `CCN1CCN(c2nc(COc3ccc(OC)cc3)cc3ccccc23)CC1` (as salt: hydrochloride) [Example 424, 1-(4-ethylpiperazin-1-yl)-3-(4-methoxyphenoxymethyl)isoquinoline Hydrochloride], 101 to 102 °C. For `CCCS(=O)(=O)Nc1ccc(-c2cc3ccccc3c(N3CCN(CC)CC3)n2)cc1` (as salt: hydrochloride) [Example 72, 3-(4-Propylsulfonylaminophenyl)-1-(4-Ethylpiperazin-1-Yl)Isoquinoline Hydrochloride], the melting point was in the range of 163 to 165 °C.

For the compound `CCCN(C)C(=O)c1ccc(-c2cc3ccccc3c(N3CCN(CC)CC3)n2)cc1` (as salt: oxalate) [Example 381], the melting point lay within 131 to 132 °C. For `CCN1CCN(c2nc(-c3ccc(N)cc3)cc3ccccc23)CC1` (as salt: hydrochloride) [Example 65, 3-(4-Aminophenyl)-1-(4-Ethylpiperazin-1-Yl)Isoquinoline Hydrochloride], the melting point lay within 267 to 268 °C.

Compound `CCN1CCN(c2nc(-c3cc(OC)cc(OC)c3)cc3ccccc23)CC1` (as salt: hydrochloride) [Example 15, 3-(3,5-dimethoxyphenyl)-1-(4-ethylpiperazin-1-yl)isoquinoline Dihydrochloride] gave a melting point of 121 to 123 °C.

As for `CCN1CCN(c2nc(-c3ccc(CS(C)(=O)=O)cc3)cc3ccccc23)CC1` (as salt: hydrochloride) [Example 90, 3-(4-Methylsulfonylmethylphenyl)-1-(4-ethylpiperazin-1-yl)isoquinoline Hydrochloride], the melting point lay in the range of 260 to 262 °C. Consider `CCN1CCN(c2nc(-c3ccc(OC)c(CCCCO)c3)cc3ccccc23)CC1` (as salt: hydrochloride) [Example 35, 3-[3-(4-hydroxybutyl)-4-methoxyphenyl]-1-(4-ethylpiperazin-1-yl)isoquinoline hydrochloride], for which the melting point was in the range of 128 to 132 °C.

Compound `CCN1CCN(c2nc(-c3ccc(N4CCSCC4)nc3)cc3ccccc23)CC1` (as salt: hydrochloride) [Example 150, 1-(4-ethylpiperazin-1-yl)-3-[2-(thiomorpholin-4-yl)pyridin-5-yl]isoquinoline trihydrochloride] displayed a melting point of 210 °C. Consider `CCN1CCN(c2nc(-c3ccc(OCCO)cc3)cc3cscc23)CC1` (as salt: oxalate) [Example 278, 4-(4-ethylpiperazin-1-yl)-6-[4-(2-hydroxyethoxy)phenyl]thieno-[3,4-c]pyridine oxalate], for which the melting point is 130 °C (dec.).

For the compound `CCN1CCN(c2nc(-c3ccc(COCCO)cc3)cc3ccccc23)CC1` (as salt: hydrochloride) [Example 44, 3-[4-(2-Hydroxyethoxylmethylphenyl]-1-(4-ethylpiperazin-1-Yl)Isoquinoline Hydrochloride], the melting point was in the range of 129 to 131 °C. For `CCN1CCN(c2nc(-c3ccc(S(=O)(=O)N(CC)CC)cc3)cc3ccccc23)CC1` (as salt: hydrochloride) [Example 359, 1-(4-ethylpiperazin-1-yl)-3-[4-(N,N-diethylsulfamoyl)phenyl]isoquinoline dihydrochloride] the value was 210 to 212 °C (dec.); for `CCCC(=O)Nc1ncc(-c2cc3ccccc3c(N3CCN(CC)CC3)n2)cn1` (as salt: hydrochloride) [Example 174, 3-(2-Propylcarbonylaminopyrimidin-5-Yl)-1-(4-Ethylpiperazin-1-Yl)Isoquinoline Hydrochlroide], 216 to 219 °C; for `CCN1CCN(c2nc(-c3ccc(OCCO)cc3)cc3ccoc23)CC1` (as salt: oxalate) [Example 301, 7-(1-Ethylpiperazin-4-yl)-5-[4-(2-hydroxyethoxy)phenyl]furo[2,3-c]pyridine oxalate], 145 to 152 °C. Compound `CCN1CCN(c2nc(-c3ccc(OC)cc3)cc3ccc(F)cc23)CC1` (as salt: hydrochloride) [Example 229, 1-(4-ethylpiperazin-1-yl)-7-fluoro-3-(4-methoxyphenyl)isoquinoline dihydrochloride] gave a melting point of 220 to 225 °C. On to `CCN1CCN(c2nc(-c3ccc(S(=O)(=O)CCCOC)cc3)cc3ccccc23)CC1` (as salt: hydrochloride) [Example 350, 1-(4-ethylpiperazin-1-yl)-3-{4-[(3-methoxypropyl)sulfonyl]phenyl}isoquinoline], for which the melting point is 177.5 to 180 °C. `CCN1CCN(c2nc(-c3ccc(CCCO)cc3)cc3ccoc23)CC1` (as salt: hydrochloride) [Example 299, 7-(1-ethylpiperazin-4-yl)-5-[4-(3-hydroxypropyl)phenyl]furo[2,3-c]pyridine dihydrochloride] showed a melting point of 126 to 130 °C. For `CCNC(=O)Cc1ccc(-c2cc3ccccc3c(N3CCN(CC)CC3)n2)cc1` (as salt: hydrochloride) [Example 87, 3-(4-Ethylaminocarbonylmethylphenyl)-1-(4-ethylpiperazin-1-yl)isoquinoline Hydrochloride] the value was 143 to 145 °C; for `CCN1CCN(c2nc(-c3ccc(OC)cc3)cc3c(C)cccc23)CC1` (as salt: hydrochloride), 249 to 253 °C; for `CCNC(=O)Oc1ccc(-c2cc3ccccc3c(N3CCN(CC)CC3)n2)cc1` (as salt: hydrochloride) [Example 59], 146 to 150 °C. In turn, `CCN1CCN(c2nc(-c3ccc(C(=O)NCCO)cc3)cc3ccccc23)CC1` (as salt: hydrochloride) [Example 346, 1-(4-ethylpiperazin-1-yl)-3-{4-(N-(2-hydroxyethyl)carbamoyl]phenyl}isoquinoline dihydrochloride] yielded a melting point of 154 to 155 °C. `CCN1CCN(c2nc(-c3ccc4c(c3)OCO4)cc3ccccc23)CC1` (as salt: hydrochloride) [Example 46, 3-(3,4-Methylenedioxyphenyl)-1-(4-Ethylpiperazin-1-Yl)Isoquinoline Hydrochloride] had a melting point of 223 to 227 °C.

Turning to `CN1CCN(c2nc(-c3ccc(OCCO)cc3)cc3sccc23)CC1` (as salt: hydrochloride) [Example 279, 4-(4-methylpiperazin-1-yl)-6-[4-(2-hydroxyethoxy)phenyl]thieno[3,2-c]pyridine hydrochloride], the melting point lay within 148 to 150 °C. Turning to `CCN1CCN(c2nc(C#Cc3ccc(OC)cc3)cc3ccccc23)CC1` (as salt: hydrochloride) [Example 178, 1-(1-Ethylpiperazin-4-Yl)-3-(4-Methoxyphenyl)Ethynylisoquinoline Dihydrochloride], the melting point was 230 °C (dec.). `CCC(=O)NCc1ccc(-c2cc3ccccc3c(N3CCN(CC)CC3)n2)cc1` (as salt: hydrochloride) [Example 85, 3-(4-Ethylcarbonylaminomethylphenyl)-1-(4-ethylpiperazin-1-yl)isoquinoline Hydrochloride] registered a melting point of 171 to 174 °C. With `CCN1CCN(c2nc(-c3ccc(CCCOC)cc3)cc3ccccc23)CC1` (as salt: hydrochloride) [Example 333, 1-(4-ethylpiperazin-1-yl)-3-[4-(3-(methoxypropyl)phenyl]isoquinolinedihydrochloride], the melting point was 191 to 192 °C (dec.).

`CCN1CCN(c2nc(-c3ccc([C@H]4CC[C@@H](O)CC4)cc3)cc3ccccc23)CC1` (as salt: hydrochloride) [Example 397, 1-(4-Ethylpiperazin-1-yl)-3-[4-(cis-4-Hydroxycyclohexyl)Phenyl]Isoquinoline Dihydrochloride] displayed a melting point of 152 to 153 °C. In the case of `CCN1CCN(c2nc(-c3ccc(OC)cc3)cc3ccsc23)CC1` (as salt: hydrochloride) [Example 459, 7-(4-ethylpiperazin-1-yl)-5-(4-methoxyphenyl)thieno[2,3-c]pyridine dihydrochloride], the melting point fell in the range of 113 to 115 °C.
